Test results as given in patent US20240116971A1, “NMN AND DERIVATIVES FOR ITS USE IN THE TREATMENT OF DEPRESSION AND/OR ANXIETY IN PATIENTS HAVING A FORM OF PARKINSONISM” (Nuvamid SA, priority 2021, published 2024).

System: patient having MSA
Assay: UMSARS questionary before and after 6 months of NMN (beta) in one patient
Type: in vivo, human
Protocol: A person presenting with parkinsonism was given NMN (beta) for 6 months. […] They indicated difficulties to get out of bed in the morning and feeling low and depressed during the day. Administration of 125 mg of NMN (beta) as an oral tablet occurred once per day in the morning. The patient has taken the […] questionary before the beginning of the study (D0) and after 6 months of treatment.

[1] = 6 months vs D0, daily administration

NC(=O)c1ccc[n+]([C@@H]2O[C@H](COP(=O)(O)O)[C@@H](O)[C@H]2O)c1 [beta-NMN, nicotinamide mononucleotide]
items of the UMSARS questionary improved (6 months vs D0, 125 mg/day oral): improved items 1, 13, 14, 16-18, 22, 26, 28, 29, 34-36 | clinical signs related to motricity [1]: did not improve most of the clinical signs related to motricity apart from items 1, 13, 14 and 16 | symptoms related to the depression [1]: improved the symptoms related to the depression
